Assay results published in the supplement of paper PMC10307832.

Tests used:
Assay in all cases: relative viability (nuclei count vs DMSO), 5 days (fraction); higher = more cells survive
AZ505 + Alpelisib = compound: C1CCC(CC1)N(CCNCCC2=C3C(=C(C=C2)O)NC(=O)CO3)C(=O)CCNCCC4=CC(=C(C=C4)Cl)Cl [AZ505] + Cc1nc(NC(=O)N2CCC[C@H]2C(N)=O)sc1-c1ccnc(C(C)(C)C(F)(F)F)c1 [Alpelisib] (partner 2 µM)
Method in brief: (§1)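 Values are medians from duplicate plates. Each reflects relative viability, defined as the nuclei count of treated wells over that of vehicle wells. Lung cancer cell lines in 1536-well plates were pin-tool dosed one day after seeding with one drug alone or with a fixed anchor-drug dose plus five library-drug doses (not always all listed) in √10 steps, then fixed, stained and imaged at 4× after 5 days.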

AZ505 + Pemetrexed = compound: C1CCC(CC1)N(CCNCCC2=C3C(=C(C=C2)O)NC(=O)CO3)C(=O)CCNCCC4=CC(=C(C=C4)Cl)Cl [AZ505] + Nc1nc2[nH]cc(CCc3ccc(C(=O)N[C@@H](CCC(=O)O)C(=O)O)cc3)c2c(=O)[nH]1 [Pemetrexed] (partner 0.2 µM)
Method in brief: as §1

AZ505 + Olaparib = compound: C1CCC(CC1)N(CCNCCC2=C3C(=C(C=C2)O)NC(=O)CO3)C(=O)CCNCCC4=CC(=C(C=C4)Cl)Cl [AZ505] + O=C(c1cc(Cc2n[nH]c(=O)c3ccccc23)ccc1F)N1CCN(C(=O)C2CC2)CC1 [Olaparib] (partner 8 µM)
Method in brief: as §1

Dactolisib + Dasatinib = compound: Cn1c(=O)n(-c2ccc(C(C)(C)C#N)cc2)c2c3cc(-c4cnc5ccccc5c4)ccc3ncc21 [Dactolisib] + Cc1nc(Nc2ncc(C(=O)Nc3c(C)cccc3Cl)s2)cc(N2CCN(CCO)CC2)n1 [Dasatinib] (partner 0.075 µM)
Method in brief: as §1

UMC-11
relative viability (AZ505 + Alpelisib; first compound 0.08 µM): 0.936
relative viability (AZ505 + Alpelisib; first compound 0.253 µM): 1.13
relative viability (AZ505 + Alpelisib; first compound 0.8 µM): 0.899
relative viability (AZ505 + Alpelisib; first compound 2.53 µM): 0.827
relative viability (AZ505 + Alpelisib; first compound 8 µM): 1.04
relative viability (AZ505 + Pemetrexed; first compound 0.08 µM): 0.757
relative viability (AZ505 + Pemetrexed; first compound 0.253 µM): 0.714
relative viability (AZ505 + Pemetrexed; first compound 0.8 µM): 0.705
relative viability (AZ505 + Pemetrexed; first compound 2.53 µM): 0.901
relative viability (AZ505 + Pemetrexed; first compound 8 µM): 0.894
relative viability (AZ505 + Olaparib; first compound 0.08 µM): 0.366
relative viability (AZ505 + Olaparib; first compound 0.253 µM): 0.372
relative viability (AZ505 + Olaparib; first compound 0.8 µM): 0.363
relative viability (AZ505 + Olaparib; first compound 2.53 µM): 0.383
relative viability (AZ505 + Olaparib; first compound 8 µM): 0.381
relative viability (Dactolisib + Dasatinib; first compound 0.002 µM): 0.496
relative viability (Dactolisib + Dasatinib; first compound 0.006325 µM): 0.419
relative viability (Dactolisib + Dasatinib; first compound 0.02 µM): 0.37
relative viability (Dactolisib + Dasatinib; first compound 0.06325 µM): 0.253
relative viability (Dactolisib + Dasatinib; first compound 0.2 µM): 0.219
